{"source": "paper PMC12677699", "about": "“Utilizing Proteolytic‐Resistant Nano‐Short Peptide Based on Naphthyl Tail‐Anchored to Combat Bacterial Infections” (Advanced Science, 2025)", "key": {"[1]": {"system": "clinically isolated strains", "assay": "MIC against clinically isolated strains (panel)", "type": "cell-based", "conditions": "all four clinical strains of Figure 4G", "description": "The MIC values of the nano‐short peptides were determined according to standard protocols.^[ [63] ^] Bacterial strains were revived from cryopreservation and cultured in Mueller–Hinton broth (MHB) to logarithmic growth phase, then diluted to a final density of 0.5–1 × 10⁶ CFU mL^−1. Serial dilutions of the nano‐short peptides were prepared in 0.2% bovine serum albumin (BSA) using a 96‐well plate format. Equal volumes of peptide solutions and bacterial suspensions were combined and incubated at 37 °C for 20–22 h. Bacterial growth was assessed by measuring absorbance at 492 nm, with MHB alone (negative control) and untreated bacterial suspension (positive control) included for reference."}, "S. aureus ATCC 29213 [2]": {"system": "S. aureus ATCC 29213", "assay": "Flow cytometry, PI", "type": "cell-based, Staphylococcus aureus", "conditions": "16 × 10^−6 M N4, 1 h, control 1.23%", "description": "The bacterial samples were incubated with N4 for 1 h and then incubated with the PI dye (at a final concentration of 10 µg mL^−1) for a further 15 min. Finally, bacteria containing PI dye were detected by FACScan flow cytometer at 488 nm excitation wavelength, bacterial solutions (containing PI dye) without N4 treatment were used as controls."}, "in vitro": {"assay": "in vitro", "conditions": "female, ICR, mouse, serum", "description": "N4 was incubated with serum isolated from mice for different durations (0, 1, 2, 4, 8, 12 h), followed by RP‐HPLC analyses to determine the retention rate.^[ [48] ^]"}, "[3]": {"assay": "Dynamic light scattering and zeta potential", "type": "physicochemical", "conditions": "16 × 10^−6 M in deionized water; n = 3", "description": "N4 was diluted to 16 × 10^−6 M using deionized water and added to disposable plastic cuvettes, and the kinetic diameters was determined using a Zetasizer Nano Z90 (Malvern Instruments, Worcestershire, U.K.).^[ [29] ^] N4 was diluted to 16 × 10^−6 M using deionized water and added to the electrode cups, and the zeta potential was determined using a Zetasizer Nano Z90 (Malvern Instruments, Worcestershire, UK).^[ [29] ^]"}, "ThT fluorescence assay": {"assay": "ThT fluorescence assay", "type": "physicochemical", "conditions": "16 × 10^−6 M N4, ThT 40 × 10^−6 M, deionized water, 20 min, 37 °C", "description": "The fluorescent dye was used for fluorescence measurements and imaging of N4. ^[ [48] ^] […] An equal volume of ThT solution was added to each well (final concentration: 40 × 10^−6 M), with ThT in deionized water serving as the control. After 20 min incubation at 37 °C, fluorescence intensity was measured using a microplate reader (excitation λ = 450 nm, emission λ = 480 nm). N4 was stained with 40 × 10^−6 M ThT for 30 min and observed by imaging using a fluorescence microscope."}, "MRSA": {"system": "MRSA", "assay": "MRSA-mediated skin infection model", "type": "in vivo, mouse", "set-up": "bacterial load in skin tissue, Day 5 / bacterial load in skin tissue, Day 9: dose or concentration left out as unconfirmed", "conditions": "MRSA wound, n = 8", "text": "The mouse skin infection model was based on previous research with some modifications.^[ [62] ^] The mice utilized in the […] were consistent with those employed in the in vivo toxicity assessment. Forty‐eight mice were randomly divided into three groups after a 3‐day pre‐feeding period, including control, N4‐treated and MRSA‐infected groups. Initially, the dorsal regions of the mice were depilated (Day ‐1). On the following day (Day 0), circular incisions were made on the dorsal surfaces, and 10 µL of saline‐diluted MRSA suspension (OD600 = 0.2) was applied to the wounds of the mice in N4‐treated and MRSA‐infected groups, while an equivalent volume of saline was administered to the wounds in the control mice. […] The above treatments were repeated after […] (Day 3). Throughout the experimental period, representative images of the wounds were captured.\nMice were euthanized on Days 5 and 9 post‐infection, and skin tissue homogenates were quantified for bacterial load. Subsequently, the supernatants of skin tissue homogenates from mice on Day 9 were selected for the detection of inflammatory factors, and wound tissues were collected for histological, Masson and immunofluorescence analyses."}, "S. aureus ATCC 29213 [4]": {"system": "S. aureus ATCC 29213", "assay": "Drug resistance assay, 30 serial passages", "type": "cell-based, Staphylococcus aureus", "conditions": "S. aureus ATCC 29213, 30 successive passages at sub-MIC concentrations; gentamicin by day 17", "description": "The potential resistance development of nano‐short peptides was evaluated through 30 serial passages of E. coli ATCC 25922 and S. aureus ATCC 29213 in sub‐MIC conditions,^[ [38] ^] using gentamicin as control."}, "E. coli ATCC 25922 [5]": {"system": "E. coli ATCC 25922", "assay": "Time-kill kinetics", "type": "cell-based, Escherichia coli", "conditions": "1 × MIC, PBS pH 7.4; n = 3", "description": "Samples were collected at pre‐determined time points post‐exposure, serially diluted, and plated on Mueller‐Hinton agar (MHA) for viable colony counting after 18–24 h incubation at 37 °C. Untreated bacterial suspensions served as controls."}, "[6]": {"assay": "Critical aggregation concentration, 1,8-ANS fluorescence", "type": "physicochemical", "conditions": "1,8-ANS 1 × 10^−6 M, peptide 2-256 × 10^−6 M in deionized water, 1 h, ex 360 nm, em 420–670 nm, linear fitting of fluorescence intensities", "description": "The self‐assembly behavior of nano‐short peptides was characterized by determining the CAC using 1,8‐ANS as a hydrophobic fluorescent probe.^[ [32] ^] Serial peptide dilutions (2‐256 × 10^−6 M in 50 µL deionized water) were prepared in 96‐well plates. 1,8‐ANS powder was solubilized in dimethylformamide (DMF) and added to the 96‐well plates (final concentration of 1 × 10^−6 M), and deionized water solution containing 1,8‐ANS was used as a blank control. After incubation for 1 h, the fluorescence emission spectra were continuously monitored with a microplate reader (Tecan Infinite200 Pro, λ excitation = 360 nm, λ emission = 420–670 nm). CAC values were determined by linear fitting of representative fluorescence intensities."}, "E. coli ATCC 25922 [7]": {"system": "E. coli ATCC 25922", "assay": "Live/dead staining, PI and SYTO 9", "type": "cell-based, Escherichia coli", "text": "Finally, a fluorescence microscope (EVOS FL Auto, Massachusetts, USA) was used to observe the fluorescence images of the bacteria under different background colors and representative pictures were taken."}, "E. coli ATCC 25922 [8]": {"system": "E. coli ATCC 25922", "assay": "Cytoplasmic membrane permeability, ONPG hydrolysis", "type": "cell-based, Escherichia coli", "conditions": "within 1800 s", "text": "The ONPG hydrolysis assay was employed to determine the effects of nano‐short peptides on permeability of E. coli ATCC 25922 cytoplasmic membranes. The detailed experimental procedures followed the previously published methodology.^[ [30] ^]"}, "[9]": {"conditions": "Day 9, vs infected group, p < 0.05"}}, "data": [{"smiles": "N=C(N)NCCC[C@H](NC(=O)[C@@H](CCCNC(=N)N)NC(=O)[C@H](Cc1cccc2ccccc12)NC(=O)[C@H](Cc1cccc2ccccc12)NC(=O)[C@H](Cc1cccc2ccccc12)NC(=O)[C@@H](N)Cc1cccc2ccccc12)C(=O)N[C@@H](CCCNC(=N)N)C(=O)N1CCC[C@H]1C(=O)O", "note": "(stereo in doubt) [Peptide N4]", "values": [{"measurement": "MIC values against clinically isolated strains", "setting": "[1]", "result": "≤ 16", "unit": "µM"}, {"measurement": "PI-positive proportion", "setting": "S. aureus ATCC 29213 [2]", "result": 36.7, "unit": "%"}, {"measurement": "remaining at 4 h", "setting": "in vitro", "result": "> 50", "unit": "%"}, {"measurement": "remaining at 12 h", "setting": "in vitro", "result": 8.1, "unit": "%"}, {"measurement": "zeta potential", "setting": "[3]", "result": 6.99, "unit": "mV"}, {"measurement": "ThT fluorescence intensity", "setting": "ThT fluorescence assay", "result": "significant increase"}, {"measurement": "bacterial load in skin tissue, Day 9", "setting": "MRSA; 10 µL of N4, twice a day on Day 1 and Day 3, topical, infected group 6.89", "result": 6.12, "unit": "log10 CFU g^−1"}, {"measurement": "bacterial load in skin tissue, Day 5", "setting": "MRSA; 10 µL of N4, twice a day on Day 1 and Day 3, topical, infected group 7.1", "result": 6.59, "unit": "log10 CFU g^−1"}, {"measurement": "anti-inflammatory cytokine IL-10 in supernatant of skin tissues", "setting": "MRSA; [9]", "result": "significant increase"}, {"measurement": "pro-inflammatory cytokines (IL-1β, IL-6, TNF-α) in supernatant of skin tissues", "setting": "MRSA; [9]", "result": "significant decrease"}, {"measurement": "increase in MIC values after serial passage", "setting": "S. aureus ATCC 29213 [4]", "result": "remained largely unchanged"}, {"measurement": "time to eliminate all E. coli ATCC 25922 cells", "setting": "E. coli ATCC 25922 [5]", "result": "≤ 1500", "unit": "s"}, {"measurement": "critical aggregation concentration (CAC)", "setting": "[6]", "result": 5.78, "unit": "µM"}, {"measurement": "red (PI)/green (SYTO 9) fluorescence overlap rate", "setting": "E. coli ATCC 25922 [7]; 16 × 10^−6 M N4, E. coli ATCC 25922, ImageJ", "result": 79.11, "unit": "%"}, {"measurement": "red (PI)/green (SYTO 9) fluorescence overlap rate", "setting": "E. coli ATCC 25922 [7]; 256 × 10^−6 M N4, E. coli ATCC 25922, ImageJ", "result": 99.29, "unit": "%"}, {"measurement": "increase in absorbance at 420 nm (ONPG hydrolysis)", "setting": "E. coli ATCC 25922 [8]; 8 μM", "result": "approximately 2 fold"}, {"measurement": "increase in absorbance at 420 nm (ONPG hydrolysis)", "setting": "E. coli ATCC 25922 [8]; 16 μM", "result": "~5", "unit": "fold"}]}]}
